Source: paper PMC5571211 (Scientific Reports, 2017)

Assays:
human recombinant LTA4-H = target: T1, human recombinant LTA4-H (Homo sapiens, UniProt P09960); assay: LTA4 hydrolase activity, co-incubation of isolated 5-LOX and LTA4-H; type: biochemical; details: diflapolin up to 10 µM, AUDA 10 µM, SC57461A 0.3 µM, zileuton 3 µM
T1 construct: gift of Dr. E. Proschak, Goethe University, Frankfurt
T1 sequence (P09960 2-611 limits assumed): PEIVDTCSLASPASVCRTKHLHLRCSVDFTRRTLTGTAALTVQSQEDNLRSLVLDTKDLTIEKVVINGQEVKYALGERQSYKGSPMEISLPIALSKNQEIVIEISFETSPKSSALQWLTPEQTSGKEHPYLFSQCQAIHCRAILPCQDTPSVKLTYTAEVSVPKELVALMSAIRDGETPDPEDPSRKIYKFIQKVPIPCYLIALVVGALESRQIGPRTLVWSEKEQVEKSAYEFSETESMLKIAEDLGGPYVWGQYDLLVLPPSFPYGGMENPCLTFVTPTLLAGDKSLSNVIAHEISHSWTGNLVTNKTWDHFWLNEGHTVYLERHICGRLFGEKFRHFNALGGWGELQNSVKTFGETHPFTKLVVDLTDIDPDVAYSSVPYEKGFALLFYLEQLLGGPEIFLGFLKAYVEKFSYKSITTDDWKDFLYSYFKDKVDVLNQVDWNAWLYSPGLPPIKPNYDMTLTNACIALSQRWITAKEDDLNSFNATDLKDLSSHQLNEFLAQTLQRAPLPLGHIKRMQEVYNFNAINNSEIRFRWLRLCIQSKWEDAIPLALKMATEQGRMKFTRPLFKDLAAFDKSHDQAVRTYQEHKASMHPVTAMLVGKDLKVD
Description: In order to determine the activity of LTA4-H, aliquots of human recombinant 5-LOX (0.5 µg) and 10 µg of human recombinant LTA4-H (kindly provided by Dr. E. Proschak, Goethe University, Frankfurt, Germany) were suspended in 1 mL PBS containing 1 mM EDTA and pre-incubated with test compounds or vehicle (0.1% DMSO) for 10 min on ice. The specific LTA4-H inhibitor SC57461A (0.3 µM) was used as reference drug. Subsequently, incubations were stimulated with 20 µM AA and 2 mM CaCl2 for additional 10 min at 37 °C. The reaction was stopped by 1 volume ice-cold methanol, 530 µL acidified PBS and 200 ng of PGB1 as internal standard were added and subjected to solid phase extraction. All LTB4 isomers were analyzed by HPLC as described above.

[1] = system: AA release (cPLA2) in neutrophils; assay: [3H]-labeled arachidonic acid release in neutrophils; type: cell-based, human; details: [3H]AA-pre-labelled neutrophils; diflapolin 1 µM, RSC-3388 10 µM
Description: Freshly isolated human neutrophils were resuspended in RPMI 1640 medium to a final cell density of 10^7 cells/mL and incubated with 0.5 µCi/mL of [^3H]-labeled arachidonic acid ([^3H]-AA), corresponding to a concentration of 5 nM of the fatty acid, for 2 hrs (37 °C, 5% CO2). Cells were washed twice to remove unincorporated [^3H]-AA and resuspended in PBS containing glucose (0.1%), fatty acid-free BSA (2 mg/mL) and CaCl2 (1 mM). […] The reaction was stopped on ice and cells were centrifuged at 1,200 rpm (10 min, 4 °C). The collected supernatants were combined with 2 mL of liquid scintillation counting solution (Rotiszint eco plus, Carl Roth, Karlsruhe, Germany) and assayed for radioactivity by scintillation counting (Micro Beta Trilux, Perkin Elmer, Waltham, MA).

recombinant LTA4-H = system: recombinant LTA4-H; set-up: method as in PMID 11805219; details: read-out: IC50 against recombinant LTA4-H; cited from earlier work
sEH in HepG2 cells = target: T2, sEH in HepG2 cells (Homo sapiens, UniProt P34913); assay: 14,15-DiHETrE formation in HepG2 cells (cell-based sEH assay)
T2 construct: sEH is constitutively expressed in the human liver cancer cell line HepG2; endogenous in cells; host or cells: HepG2
T2 sequence (P34913 1-555): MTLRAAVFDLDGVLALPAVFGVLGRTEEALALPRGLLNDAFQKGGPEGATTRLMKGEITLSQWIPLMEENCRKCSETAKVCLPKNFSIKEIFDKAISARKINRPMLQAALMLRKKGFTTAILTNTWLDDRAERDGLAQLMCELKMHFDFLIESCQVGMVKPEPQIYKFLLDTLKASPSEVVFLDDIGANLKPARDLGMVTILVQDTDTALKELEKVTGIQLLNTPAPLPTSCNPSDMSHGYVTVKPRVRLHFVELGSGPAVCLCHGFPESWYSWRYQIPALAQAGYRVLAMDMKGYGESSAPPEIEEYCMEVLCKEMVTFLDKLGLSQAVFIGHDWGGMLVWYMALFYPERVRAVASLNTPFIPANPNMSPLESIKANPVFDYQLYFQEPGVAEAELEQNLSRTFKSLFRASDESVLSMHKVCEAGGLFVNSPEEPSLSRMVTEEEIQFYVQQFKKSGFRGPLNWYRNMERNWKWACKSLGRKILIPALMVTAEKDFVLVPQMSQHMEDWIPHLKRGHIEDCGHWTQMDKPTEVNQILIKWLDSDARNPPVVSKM
Description: To assay the activity of sEH in a cell-based model, HepG2 cells were harvested by trypsinization, pelleted (1,200 rpm, 5 min, 4 °C) and resuspended in PGC buffer to a final concentration of 1.5 × 10^6 cells/mL. […] Briefly, samples were acidified with four volumes of MilliQ water pH 3.5 containing PBS-HCl and subjected to Waters Sep-Pak® Vac 6cc columns (Waters, Milford, MA, USA), washed once with MilliQ and hexane, and eluted with methylformiate. The nitrogen-dried samples were dissolved in 50% methanol, and 14,15-DiHETrE formation was measured by UPLC-MS/MS using an Acquity™ UPLC system (Waters, Milford, MA, USA) and a QTRAP 5500 Mass Spectrometer (ABSciex, Darmstadt, Germany) equipped with a Turbo V™ Source and electrospray ionization (ESI). […] Ion spray voltage was set to 4000 V, the heater temperature to 500 °C, the declustering potential to 50–80 eV, the entrance potential to 10 eV, the collision cell exit potential to 10–13 eV, collision energies of 10 eV, the spray gas pressure to 40 psi, medium collision gas and the curtain gas pressure to 35 psi.

monocytes = assay: Acute cytotoxicity, MTT assay in monocytes; type: cell-based, human; details: 24 or 48 hrs; diflapolin 10 µM, staurosporine 3 µM
Description: Acute cytotoxicity of the compounds was determined using freshly isolated monocytes. Cells (0.2 × 10^6) per sample were seeded in 100 µL buffer on 96-well plates and treated with the test compounds and appropriate controls for 24 or 48 hrs (37 °C, 5% CO2). After addition of MTT (5 mg/mL) for 2 h (37 °C, 5% CO2), cells were lysed by SDS treatment (10%, pH 4.5) for 16–20 hrs and formazan formation was determined by measurement of absorbance at 570 nm.

[2] = target: T3, co-localization of 5-LOX with FLAP (Homo sapiens, UniProt P20292); assay: Immunofluorescence microscopy of 5-LOX subcellular redistribution / co-localization with FLAP; type: cell-based; details: human neutrophils or monocytes; diflapolin 1 µM, MK886 0.3 µM, zileuton 3 µM
T3 construct: endogenous in cells; host or cells: freshly isolated human monocytes (immunofluorescence also in neutrophils)
T3 sequence (P20292 1-161): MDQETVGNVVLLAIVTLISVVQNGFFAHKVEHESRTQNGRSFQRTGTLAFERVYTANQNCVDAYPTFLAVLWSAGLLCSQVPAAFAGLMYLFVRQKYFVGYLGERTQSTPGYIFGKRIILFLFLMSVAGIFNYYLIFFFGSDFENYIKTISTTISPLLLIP
Description: The incubations were stopped by paraformaldehyde fixation (4%, 20 min, RT) and cells were permeabilized using 100% ice-cold acetone (5 min, 4 °C). Blocking with non-immune goat serum (30 min, RT) was performed prior to overnight incubation (4 °C) with primary monoclonal-mouse-anti-5-LOX antibody (1:100 dilution, a generous gift from Dr. D. Steinhilber, Goethe University Frankfurt, Germany) and polyclonal-rabbit-anti-FLAP antibody (5 µg/mL, Abcam, Cambridge, UK). […] Cells were visualized by a Zeiss Axiovert 200 M microscope, and a Plan Neofluar × 100/1.30 Oil (DIC III) objective (Carl Zeiss, Jena, Germany) and image acquisition was performed using an AxioCam MR camera (Carl Zeiss).

5-LOX/FLAP complex = target: T4, 5-LOX/FLAP complex (Homo sapiens, UniProt P20292); assay: Proximity ligation assay of 5-LOX/FLAP complex assembly in monocytes; type: cell-based; details: diflapolin 1 µM, MK886 0.3 µM, zileuton 3 µM
T4 construct: endogenous in cells; host or cells: freshly isolated human monocytes (immunofluorescence also in neutrophils)
T4 sequence (P20292 1-161): T3 sequence (P20292 1-161)
Description: In situ protein interaction of 5-LOX and FLAP was analyzed by proximity ligation assay as described before[37] and referring to the manufacturer’s protocol. In brief, freshly isolated monocytes were treated as described for IF above. Overnight incubations with primary antibodies were then treated for 1 h (37 °C) with oligonucleotide-labeled specific secondary antibodies (PLA probes anti-mouse MINUS and anti-rabbit PLUS). Formation of circled DNA sequences was induced by addition of ligase and oligonucleotide mixture (30 min at 37 °C). Rolling-circle-amplification of newly generated DNA template was performed (90 min, 37 °C) including hybridization of fluorescently-labeled oligonucleotides within the formed DNA strands, resulting in visualization of protein-protein interactions recognized as magenta-stained dots. Nuclear DNA staining with DAPI and image acquisition was performed as described above. Overview images were obtained using a Plan Neofluar 40/1.30 Oil (DIC III) objective (Carl Zeiss).

[3] = system: 5-LOX activity in monocytes, neutrophils; assay: cells; details: Homo sapiens, read-out: IC50 5-LOX activity in cell-based assays
Description: In order to examine 5-LOX product formation in intact human neutrophils and monocytes, freshly isolated cells were resuspended in PBS buffer containing 0.1% glucose and 1 mM CaCl2 (PGC buffer) to a final cell density of 5 × 10^6 or 2 × 10^6, respectively. […] 5-LOX product formation was stopped by addition of one volume of ice-cold methanol, samples were subjected to solid phase extraction after addition of 200 ng PGB1 as internal standard and 5-LOX products were analyzed by RP-HPLC as described above.

O=C(O)CCCCCCCCCCCNC(=O)NC12CC3CC(CC(C3)C1)C2 [AUDA]
effect on LTA4-H activity (LTB4 formation) (human recombinant LTA4-H): showed the same pattern as diflapolin

CC(C)CN(Cc1ccccc1-c1ccccc1)[C@@H]1C[C@@H](CNC(=O)/C=C/c2ccc(/C=C3\SC(=O)NC3=O)cc2)N(C(=O)c2ccccc2C(=O)c2ccc(F)cc2F)C1 [RSC-3388]
release of AA upon A23187-stimulation [1]: suppressed AA liberation

CN(CCCOc1ccc(Cc2ccccc2)cc1)CCC(=O)O.Cl [SC57461A, 3-[methyl[3-[4-(phenylmethyl)phenoxy]propyl]amino]propanoic acid HCl]
IC50 (recombinant LTA4-H): 0.1 µM
effect on sEH in the cell-based sEH assay (sEH in HepG2 cells): no impact
effect on LTA4-H activity (LTB4 formation) (human recombinant LTA4-H): blocked LTB4 biosynthesis

CN[C@@H]1C[C@H]2O[C@@](C)([C@@H]1OC)n1c3ccccc3c3c4c(c5c6ccccc6n2c5c31)C(=O)NC4 [staurosporine]
viability of monocytes, MTT assay (monocytes): strongly impaired cell viability

CC(c1cc2ccccc2s1)N(O)C(N)=O (stereo not shown) [zileuton]
co-localization of 5-LOX with FLAP [2]: neither diflapolin nor the FLAP inhibitor MK886 or the 5-LOX inhibitor zileuton prevented co-localization
effect on LTA4-H activity (LTB4 formation) (human recombinant LTA4-H): reduced the formation of all LTB4 isomers
5-LOX/FLAP complex assembly (PLA) (5-LOX/FLAP complex): failed
IC50 [3]: 1.5 µM
